# Measurements as given in US20150231147A1, “METHODS FOR ACUTE AND LONG-TERM TREATMENT OF DRUG ADDICTION” (DemeRx, Inc., priority 2014, published 2015).
# Columns and labels:
# Format in all cases: in vivo, human
# [1] = tested on: opioid-dependent participants; assay: Treatment emergent adverse events in opioid-dependent participants; settings: opioid-dependent patients
# Method: (§1) The efficacy of noribogaine in humans was evaluated in opioid-dependent participants in a randomized, placebo-controlled, double-blind trial. […] See U.S. application Ser. No. 14/214,157, filed Mar. 14, 2014 and Ser. No. 14/346,655, filed Mar. 21, 2014, which are incorporated herein by reference in their entireties.
# (§2) Three cohorts of nine (9) subjects (6 administered noribogaine and 3 administered placebo in each cohort) were evaluated for tolerability, pharmacokinetics, and efficacy. Cohort 1 received a single dose of 60 mg noribogaine or placebo. Cohort 2 received a single dose of 120 mg noribogaine or placebo. Cohort 3 received a single dose of 180 mg noribogaine or placebo.
# [2] = tested on: opioid-dependent participants; assay: Time to resumption of morphine (opioid substitution treatment, OST)
# Method: as §1, §2
# [3] = tested on: opioid-dependent participants; assay: Opiate withdrawal scales COWS, SOWS, OOWS
# Method: Patients were evaluated based on the Clinical Opiate Withdrawal Scale (COWS), Subjective Opiate Withdrawal Scale (SOWS), and Objective Opiate Withdrawal Scale (OOWS) scoring systems over the period of time between administration of noribogaine (or placebo) until resumption of OST. These scales are outlined in Guidelines for the Psychosocially Assisted Pharmacological Treatment of Opioid Dependence, World Health Organization, Geneva (2009), Annex 10, which is incorporated herein by reference in its entirety. The scales measure the intensity of withdrawal symptoms, based on clinical, subjective, and objective indicia.
# [4] = tested on: opioid-dependent participants; assay: QT interval prolongation in opioid-dependent patients; settings: 60, 120, 180 mg, first 24 hours post administration; correlated with serum concentration
# Method: Patients' QT intervals were evaluated at regular time points throughout the study.
smiles,measurement,setting,value
CC[C@H]1CC2C[C@H]3c4[nH]c5ccc(O)cc5c4CCN(C2)C13 [Noribogaine],Treatment emergent AEs: Infections and Infestations,[1]; single 60 mg dose (N = 6),0
same,Treatment emergent AEs: Limb Discomfort,[1]; single 60 mg dose (N = 6),0
same,Treatment emergent AEs: Malaise,[1]; single 60 mg dose (N = 6),0
same,Treatment emergent AEs: Nausea,[1]; single 60 mg dose (N = 6),0
same,Treatment emergent AEs: Oropharyngeal Pain,[1]; single 60 mg dose (N = 6),0
same,Treatment emergent AEs: Pseudoparalysis,[1]; single 60 mg dose (N = 6),0
same,"Treatment emergent AEs: Respiratory, Thoracic and Mediestinal Disorders",[1]; single 60 mg dose (N = 6),0
same,Treatment emergent AEs: Rhinorrhoea,[1]; single 60 mg dose (N = 6),0
same,Treatment emergent AEs: Skin Discomfort,[1]; single 60 mg dose (N = 6),0
same,Treatment emergent AEs: Skin Irritation,[1]; single 60 mg dose (N = 6),0
same,Treatment emergent AEs: Skin and Subcutaneous Tissue Disorders,[1]; single 60 mg dose (N = 6),0
same,Treatment emergent AEs: Somnolence,[1]; single 60 mg dose (N = 6),0
same,Treatment emergent AEs: Tinnitus,[1]; single 60 mg dose (N = 6),0
same,Treatment emergent AEs: Tremor,[1]; single 60 mg dose (N = 6),0
same,Treatment emergent AEs: Urinary Tract Infection,[1]; single 60 mg dose (N = 6),0
same,Treatment emergent AEs: Vomiting,[1]; single 60 mg dose (N = 6),0
same,Treatment emergent AEs: Back pain,[1]; single 120 mg dose (N = 6),0
same,Treatment emergent AEs: Catheter Site Infection,[1]; single 120 mg dose (N = 6),0
same,Treatment emergent AEs: Catheter Site Related Reaction,[1]; single 120 mg dose (N = 6),0
same,Treatment emergent AEs: Depressed Mood,[1]; single 120 mg dose (N = 6),0
same,Treatment emergent AEs: Dry Eye,[1]; single 120 mg dose (N = 6),0
same,Treatment emergent AEs: Dyspepsia,[1]; single 120 mg dose (N = 6),0
same,Treatment emergent AEs: Euphoric Mood,[1]; single 120 mg dose (N = 6),0
same,Treatment emergent AEs: Limb Discomfort,[1]; single 120 mg dose (N = 6),0
same,Treatment emergent AEs: Malaise,[1]; single 120 mg dose (N = 6),0
same,Treatment emergent AEs: Musculoskeletal and Connective Tissue Disorders,[1]; single 120 mg dose (N = 6),0
same,Treatment emergent AEs: Psychiatric Disorders,[1]; single 120 mg dose (N = 6),0
same,Treatment emergent AEs: Somnolence,[1]; single 120 mg dose (N = 6),0
same,Treatment emergent AEs: Urinary Tract Infection,[1]; single 120 mg dose (N = 6),0
same,Treatment emergent AEs: Catheter Site Infection,[1]; single 180 mg dose (N = 6),0
same,Treatment emergent AEs: Catheter Site Pain,[1]; single 180 mg dose (N = 6),0
same,Treatment emergent AEs: Depressed Mood,[1]; single 180 mg dose (N = 6),0
same,Treatment emergent AEs: Diarrhoea,[1]; single 180 mg dose (N = 6),0
same,Treatment emergent AEs: Dry Eye,[1]; single 180 mg dose (N = 6),0
same,Treatment emergent AEs: Dyspepsia,[1]; single 180 mg dose (N = 6),0
same,Treatment emergent AEs: Ear and Labyrinth Disorders,[1]; single 180 mg dose (N = 6),0
same,Treatment emergent AEs: Epistaxis,[1]; single 180 mg dose (N = 6),0
same,Treatment emergent AEs: Euphoric Mood,[1]; single 180 mg dose (N = 6),0
same,Treatment emergent AEs: Hyperaesthesia,[1]; single 180 mg dose (N = 6),0
same,Treatment emergent AEs: Malaise,[1]; single 180 mg dose (N = 6),0
same,Treatment emergent AEs: Oropharyngeal Pain,[1]; single 180 mg dose (N = 6),0
same,Treatment emergent AEs: Pseudoparalysis,[1]; single 180 mg dose (N = 6),0
same,Treatment emergent AEs: Psychiatric Disorders,[1]; single 180 mg dose (N = 6),0
same,"Treatment emergent AEs: Respiratory, Thoracic and Mediestinal Disorders",[1]; single 180 mg dose (N = 6),0
same,Treatment emergent AEs: Rhinorrhoea,[1]; single 180 mg dose (N = 6),0
same,Treatment emergent AEs: Skin Discomfort,[1]; single 180 mg dose (N = 6),0
same,Treatment emergent AEs: Skin Irritation,[1]; single 180 mg dose (N = 6),0
same,Treatment emergent AEs: Skin and Subcutaneous Tissue Disorders,[1]; single 180 mg dose (N = 6),0
same,Treatment emergent AEs: Somnolence,[1]; single 180 mg dose (N = 6),0
same,Treatment emergent AEs: Tinnitus,[1]; single 180 mg dose (N = 6),0
same,Treatment emergent AEs: Tremor,[1]; single 180 mg dose (N = 6),0
same,adverse effects observed,"[1]; single 60, 120 or 180 mg dose",Few adverse effects
same,hallucinatory effects,"[1]; single 60, 120 or 180 mg dose",no hallucinatory effects
same,average time to resumption of opioids,"[2]; single 120 mg dose, given 2 hours after last morphine dose",greater than 20 hours
same,Time to resumption of OST compared with untreated patients and 60 mg group,[2]; single 180 mg dose,"still longer than untreated patients (7 hours, not shown) or those administered 60 mg noribogaine"
same,"withdrawal symptoms (COWS, OOWS, SOWS), first six hours following dosing","[3]; single 120 mg dose, compared with the other patients",generally experienced fewer withdrawal symptoms than the other patients
same,"withdrawal symptoms (COWS, OOWS, SOWS), noribogaine compared with placebo","[3]; single 60, 120 or 180 mg dose, first six hours following dosing",Patients administered placebo generally experienced more withdrawal symptoms than patients who were administered noribogaine
same,QT interval prolongation (ΔQTcl),[4],dose-dependent increase in QT interval prolongation
